Assay results: patent US20230115176A1 (Ra Pharmaceuticals, Inc., priority 2019, published 2023)

Biological target: T1, Human C5 (Homo sapiens, UniProt P01031)
T1 construct: purchased Complement Technology
Experiment: Red blood cell (RBC) hemolysis assay, luminescent (Example 24, Table 29)
Format: cell-based
Settings: sheep EA cells, […] C5-depleted human serum, 0.5 nM human C5, 1 hour at 37° C., luminescence (Table 29)
Excerpt: Numbers in parenthesis following the compound number indicate alternate enantiomers (as distinguished by retention time during chromatographical separation).

T1 sequence (P01031 19-1676): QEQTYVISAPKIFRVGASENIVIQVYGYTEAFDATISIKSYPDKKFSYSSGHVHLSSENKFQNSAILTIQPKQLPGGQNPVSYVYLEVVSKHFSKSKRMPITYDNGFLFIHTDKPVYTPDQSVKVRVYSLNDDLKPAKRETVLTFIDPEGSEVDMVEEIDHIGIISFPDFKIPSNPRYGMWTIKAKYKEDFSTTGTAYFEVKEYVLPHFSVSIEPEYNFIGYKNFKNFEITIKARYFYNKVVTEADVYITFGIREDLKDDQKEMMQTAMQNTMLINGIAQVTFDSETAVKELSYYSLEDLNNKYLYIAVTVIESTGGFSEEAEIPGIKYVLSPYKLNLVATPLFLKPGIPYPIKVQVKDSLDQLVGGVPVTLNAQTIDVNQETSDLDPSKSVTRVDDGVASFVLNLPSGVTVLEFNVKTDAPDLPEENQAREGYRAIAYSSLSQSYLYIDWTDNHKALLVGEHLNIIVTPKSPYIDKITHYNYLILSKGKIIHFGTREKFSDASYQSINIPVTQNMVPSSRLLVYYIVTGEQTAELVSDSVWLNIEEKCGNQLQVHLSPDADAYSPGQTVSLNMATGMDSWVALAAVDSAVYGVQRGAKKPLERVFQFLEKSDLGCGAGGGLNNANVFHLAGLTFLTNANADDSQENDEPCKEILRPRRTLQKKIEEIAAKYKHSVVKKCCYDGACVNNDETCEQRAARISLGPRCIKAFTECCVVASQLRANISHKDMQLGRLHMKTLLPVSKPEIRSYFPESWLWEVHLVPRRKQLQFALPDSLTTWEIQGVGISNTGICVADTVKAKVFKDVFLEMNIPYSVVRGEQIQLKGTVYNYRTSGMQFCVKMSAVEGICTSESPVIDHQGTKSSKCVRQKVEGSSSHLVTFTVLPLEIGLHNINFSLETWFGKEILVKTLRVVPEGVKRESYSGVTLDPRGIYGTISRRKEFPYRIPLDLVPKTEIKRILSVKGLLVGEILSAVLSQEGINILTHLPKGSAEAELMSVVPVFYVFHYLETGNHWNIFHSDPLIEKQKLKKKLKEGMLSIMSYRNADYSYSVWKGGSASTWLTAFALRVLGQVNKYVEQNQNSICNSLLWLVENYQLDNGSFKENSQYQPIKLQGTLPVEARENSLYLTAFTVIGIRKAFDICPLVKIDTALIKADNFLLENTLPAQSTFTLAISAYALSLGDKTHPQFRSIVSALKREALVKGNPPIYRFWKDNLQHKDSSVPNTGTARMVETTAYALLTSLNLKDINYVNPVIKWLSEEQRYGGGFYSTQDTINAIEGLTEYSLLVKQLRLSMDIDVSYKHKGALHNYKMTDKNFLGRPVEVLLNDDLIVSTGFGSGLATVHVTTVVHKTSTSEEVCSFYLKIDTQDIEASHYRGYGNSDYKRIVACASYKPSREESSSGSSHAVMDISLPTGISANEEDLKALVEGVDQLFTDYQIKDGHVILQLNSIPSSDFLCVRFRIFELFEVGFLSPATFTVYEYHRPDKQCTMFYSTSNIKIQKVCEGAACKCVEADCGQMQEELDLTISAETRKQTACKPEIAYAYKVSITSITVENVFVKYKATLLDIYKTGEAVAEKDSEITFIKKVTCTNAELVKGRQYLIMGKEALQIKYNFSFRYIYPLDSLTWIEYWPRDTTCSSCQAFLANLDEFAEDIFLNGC

| Structure (SMILES) | IC50 [nM] |
| --- | --- |
| CCCCCOc1cc(N2CC(COCC(N)=O)CN(Cc3cc(F)ccc3OC)C2=O)ccc1OC (centres unmarked) [SC0028] | 53.7 |
| CCCCCOc1cc(N2CC(COCC(=O)N3CCOCC3)CN(Cc3cc(F)ccc3OC)C2=O)ccc1OC (centres unmarked) [SC0029] | 84.5 |
| CCCCCOc1cc(N2CC(COCC(=O)NC)CN(Cc3cc(F)ccc3OC)C2=O)ccc1OC (centres unmarked) [SC0030] | 94.5 |
| CCCCCOc1cc(N2CC(Cn3cc(C)cn3)CN(Cc3cc(F)ccc3OC)C2=O)ccc1OC (centres unmarked) [SC0031] | 96 |
| CCCCCOc1cc(N2CC(Cn3cc(-c4cnccn4)cn3)CN(Cc3cc(F)ccc3OC)C2=O)ccc1OC (centres unmarked) [SC0032] | 99.8 |
| CCCCCOc1cc(N2CC(Cn3cccn3)CN(Cc3cc(F)ccc3OC)C2=O)ccc1OC (centres unmarked) [SC0033] | 101 |
| CCCCCOc1cc(N2CC(CN)CN(Cc3cc(F)ccc3OC)C2=O)ccc1OC (centres unmarked) [SC0034] | 115 |
| CCCCCOc1cc(N2CC(Cn3cncn3)CN(Cc3cc(F)ccc3OC)C2=O)ccc1OC (centres unmarked) [SC0035] | 122 |
| CCCCCOc1cc(N2CC(CNC(=O)C(F)(F)F)CN(Cc3cc(F)ccc3OC)C2=O)ccc1OC (centres unmarked) [SC0036] | 122 |
| CCCCCOc1cc(N2CC(COCC(=O)NCCOC)CN(Cc3cc(F)ccc3OC)C2=O)ccc1OC (centres unmarked) [SC0037] | 124 |
| CCCCCOc1cc(N2CC(Cn3cc(-c4ccccn4)nn3)CN(Cc3cc(F)ccc3OC)C2=O)ccc1OC (centres unmarked) [SC0038] | 129 |
| CCCCCOc1cc(N2CC(Cn3cc(CO)nn3)CN(Cc3cc(F)ccc3OC)C2=O)ccc1OC (centres unmarked) [SC0040] | 208 |
| CCCCCOc1cc(N2CC(Cn3cc4ccccc4n3)CN(Cc3cc(F)ccc3OC)C2=O)ccc1OC (centres unmarked) [SC0041] | 251 |
| CCCCCOc1cc(N2CC(Cn3ccnc3)CN(Cc3cc(F)ccc3OC)C2=O)ccc1OC (centres unmarked) [SC0042] | 258 |
| CCCCCOc1cc(N2CC(Cn3ncc4ccccc43)CN(Cc3cc(F)ccc3OC)C2=O)ccc1OC (centres unmarked) [SC0043] | 337 |
| CCCCCOc1cc(N2CC(C(N)=O)CN(Cc3cc(F)ccc3OC)C2=O)ccc1OC (centres unmarked) [SC0044] | 14.9 |
| CCCCCOc1cc(N2CC(C(=O)N3CCS(=O)(=O)C3)CN(Cc3cc(F)ccc3OC)C2=O)ccc1OC (centres unmarked) [SC0045] | 24.3 |
| CCCCCOc1cc(N2CC(C(=O)NC)CN(Cc3cc(F)ccc3OC)C2=O)ccc1OC (centres unmarked) [SC0046] | 33 |

| Structure (SMILES) | IC50 [nM] |
| --- | --- |
| CCCCCOc1cc(N2CC(C(=O)NCCOC)CN(Cc3cc(F)ccc3OC)C2=O)ccc1OC (centres unmarked) [SC0047] | 36.2 |
| CCCCCOc1cc(N2CC(C(=O)N(C)C)CN(Cc3cc(F)ccc3OC)C2=O)ccc1OC (centres unmarked) [SC0048] | 52.3 |
| CCCCCOc1cc(N2CC(C(=O)N(C)CCO)CN(Cc3cc(F)ccc3OC)C2=O)ccc1OC (centres unmarked) [SC0049] | 68.1 |
| CCCCCOc1cc(N2CC(C(=O)Nc3ncco3)CN(Cc3cc(F)ccc3OC)C2=O)ccc1OC (centres unmarked) [SC0050] | 76.2 |
| CCCCCOc1cc(N2CC(C(=O)N3CCOCC3)CN(Cc3cc(F)ccc3OC)C2=O)ccc1OC (centres unmarked) [SC0051] | 111 |
| CCCCCOc1cc(N2CC(CNC(=O)c3cnco3)CN(Cc3cc(F)ccc3OC)C2=O)ccc1OC (centres unmarked) [SC0053] | 24.2 |
| CCCCCOc1cc(N2CC(CNC(=O)c3ccccn3)CN(Cc3cc(F)ccc3OC)C2=O)ccc1OC (centres unmarked) [SC0054] | 34.8 |
| CCCCCOc1cc(N2CC(CNC(=O)C(=O)N(C)C)CN(Cc3cc(F)ccc3OC)C2=O)ccc1OC (centres unmarked) [SC0055] | 38.2 |
| CCCCCOc1cc(N2CC(CNC(=O)COC)CN(Cc3cc(F)ccc3OC)C2=O)ccc1OC (centres unmarked) [SC0056] | 42.5 |
| CCCCCOc1cc(N2CC(CNC(=O)c3ccnn3C)CN(Cc3cc(F)ccc3OC)C2=O)ccc1OC (centres unmarked) [SC0057] | 47.5 |
| CCCCCOc1cc(N2CC(O)CN(Cc3cc(F)ccc3OC)C2=O)ccc1OC (centres unmarked) [SC0058] | 50.8 |
| CCCCCOc1cc(N2CC(C(=O)O)CN(Cc3cc(F)ccc3OC)C2=O)ccc1OC (centres unmarked) [SC0059] | 57.7 |
| C=C1CN(Cc2ccc(Br)cc2OC)C(=O)N(c2ccc(OC)c(OCCCCC)c2)C1 [SC0062] | 173 |
| CCCCCOc1cc(N2C(=O)CN(Cc3cc(F)ccc3OC)C2=O)ccc1OC [SC0063] | 985 |
| CCCCCOc1cc(N2CC3(CC3)CN(Cc3ccnc4c3ccn4CC(=O)N(C)C)C2=O)ccc1OC [SC0065] | 39 |
| CCCCCOc1cc(N2CC3(CN(C(=O)OCC)C3)CN(Cc3cc(F)ccc3OC)C2=O)ccc1OC [SC0067] | 59 |
| CCCCCOc1cc(N2CC3(CN(Cc4cc(F)ccc4OC)C2=O)CC3(F)F)ccc1OC (centres unmarked) [SC0068] | 77.2 |
